Data as given in patent US20240384268A1, “Oligonucleotides” (Hudson Institute of Medical Research, priority 2021, published 2024).

Target: T1, human TLR9 (Homo sapiens, UniProt Q9NR96)
T1 construct: HA; host or cells: 293XL-hTLR9-HA (HEK293)
T1 sequence (Q9NR96 26-1032): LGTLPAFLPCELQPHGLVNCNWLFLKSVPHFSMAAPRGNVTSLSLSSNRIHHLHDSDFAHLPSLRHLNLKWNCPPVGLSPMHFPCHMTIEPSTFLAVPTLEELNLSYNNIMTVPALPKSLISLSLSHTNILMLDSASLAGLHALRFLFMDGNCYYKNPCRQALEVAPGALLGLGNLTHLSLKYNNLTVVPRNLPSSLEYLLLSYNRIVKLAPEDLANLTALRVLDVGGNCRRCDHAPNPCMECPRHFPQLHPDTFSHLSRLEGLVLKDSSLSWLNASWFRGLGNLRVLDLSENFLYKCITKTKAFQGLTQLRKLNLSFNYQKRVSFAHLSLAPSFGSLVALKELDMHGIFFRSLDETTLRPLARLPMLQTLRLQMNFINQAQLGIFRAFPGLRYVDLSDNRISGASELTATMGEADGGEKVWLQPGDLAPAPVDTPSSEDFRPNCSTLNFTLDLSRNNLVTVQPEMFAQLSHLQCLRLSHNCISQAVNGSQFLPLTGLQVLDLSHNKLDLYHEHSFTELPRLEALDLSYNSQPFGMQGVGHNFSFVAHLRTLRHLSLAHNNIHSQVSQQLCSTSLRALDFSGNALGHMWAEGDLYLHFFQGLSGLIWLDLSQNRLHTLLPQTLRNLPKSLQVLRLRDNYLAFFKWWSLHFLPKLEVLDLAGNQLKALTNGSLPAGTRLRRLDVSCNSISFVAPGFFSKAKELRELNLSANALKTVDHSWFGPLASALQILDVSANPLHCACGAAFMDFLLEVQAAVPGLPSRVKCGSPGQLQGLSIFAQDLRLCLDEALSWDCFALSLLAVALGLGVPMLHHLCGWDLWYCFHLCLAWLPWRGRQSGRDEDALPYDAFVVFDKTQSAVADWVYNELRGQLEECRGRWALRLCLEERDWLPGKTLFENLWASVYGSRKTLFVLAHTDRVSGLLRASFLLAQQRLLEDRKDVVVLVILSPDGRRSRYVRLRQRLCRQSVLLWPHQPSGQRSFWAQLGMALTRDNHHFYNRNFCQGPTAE
Test: HEK-TLR9 NF-κB-luciferase reporter, ODN2006 stimulation
Assay type: cell-based
Conditions: averaged NF-κB-Luciferase relative to ODN2006 condition; for TLR9 100 nM: MOE-modified ASO at 100 nM; for TLR9 500 nM: MOE-modified ASO at 500 nM

Sequence	TLR9 100 nM	TLR9 500 nM
ACCCACTTGGCAGACCATCA (antisense; 2'-MOE modified, pattern not given here) [CTNN2B-1575 MOE]	0.725	0.556
ATCCAACACTTCGTGGGGTC (antisense; 2'-MOE modified, pattern not given here) [HPRT-668 MOE]	0.287	0.618
GCGGAGGTCTTGGCTTCGTG (antisense; 2'-MOE modified, pattern not given here) [MB21D1-526 MOE]	0.682	0.246
TTGCACACTTCGTACCCAAA (antisense; 2'-MOE modified, pattern not given here) [CAMSAP1-4915 MOE]	0.894	0.524
ACAACCCCTTTCACCATCCC (antisense; 2'-MOE modified, pattern not given here) [MB21D1-689 MOE]	0.785	0.499
GGTGGTGGCCACCCATCTCA (antisense; 2'-MOE modified, pattern not given here) [CTNN2B-2479 MOE]	0.761	0.317
ATGTCCCGCCACTGGATGCT (antisense; 2'-MOE modified, pattern not given here) [EGFR-727 MOE]	0.801	0.423
TCAAAGGACTGAGGAAAGGG (antisense; 2'-MOE modified, pattern not given here) [CAMSAP1-6273 MOE]	0.265	0.040
TGTCCTTGCACGTGGCTTCG (antisense; 2'-MOE modified, pattern not given here) [EGFR-1014 MOE]	0.764	0.623
TGTCTTCATCGGCCCTGCCT (antisense; 2'-MOE modified, pattern not given here) [CAMSAP1-2112 MOE]	0.697	0.480
GTCTTGGCTTCGTGGAGCAG (antisense; 2'-MOE modified, pattern not given here) [MB21D1-520 MOE]	0.709	0.599
CTCTTGAAGCATCGTATCAC (antisense; 2'-MOE modified, pattern not given here) [CTNN2B-3648 MOE]	0.721	0.472
GGTGGTCCACAACCCCTTTC (antisense; 2'-MOE modified, pattern not given here) [MB21D1-697 MOE]	0.456	0.071
ATGTCCCCTGTTGACTGGTC (antisense; 2'-MOE modified, pattern not given here) [HPRT-489 MOE]	0.968	0.953
TTGGCTCGGCTTGCCTACTT (antisense; 2'-MOE modified, pattern not given here) [CAMSAP1-5594 MOE]	0.705	0.445
GCTTCAGGCGCTGCCTTGCC (antisense; 2'-MOE modified, pattern not given here) [CAMSAP1-2709 MOE]	0.833	0.824
